Entries after “also recorded” stand apart in the source; their conditions may differ.
What was measured:
[1] = target: T1, progesterone receptor (PR) (Homo sapiens, UniProt P06401); assay: T47D alkaline phosphatase (AP) potency assay; type: cell-based
T1 construct: endogenous in cells; host or cells: T47D breast carcinoma cells
T1 sequence (P06401 1-933): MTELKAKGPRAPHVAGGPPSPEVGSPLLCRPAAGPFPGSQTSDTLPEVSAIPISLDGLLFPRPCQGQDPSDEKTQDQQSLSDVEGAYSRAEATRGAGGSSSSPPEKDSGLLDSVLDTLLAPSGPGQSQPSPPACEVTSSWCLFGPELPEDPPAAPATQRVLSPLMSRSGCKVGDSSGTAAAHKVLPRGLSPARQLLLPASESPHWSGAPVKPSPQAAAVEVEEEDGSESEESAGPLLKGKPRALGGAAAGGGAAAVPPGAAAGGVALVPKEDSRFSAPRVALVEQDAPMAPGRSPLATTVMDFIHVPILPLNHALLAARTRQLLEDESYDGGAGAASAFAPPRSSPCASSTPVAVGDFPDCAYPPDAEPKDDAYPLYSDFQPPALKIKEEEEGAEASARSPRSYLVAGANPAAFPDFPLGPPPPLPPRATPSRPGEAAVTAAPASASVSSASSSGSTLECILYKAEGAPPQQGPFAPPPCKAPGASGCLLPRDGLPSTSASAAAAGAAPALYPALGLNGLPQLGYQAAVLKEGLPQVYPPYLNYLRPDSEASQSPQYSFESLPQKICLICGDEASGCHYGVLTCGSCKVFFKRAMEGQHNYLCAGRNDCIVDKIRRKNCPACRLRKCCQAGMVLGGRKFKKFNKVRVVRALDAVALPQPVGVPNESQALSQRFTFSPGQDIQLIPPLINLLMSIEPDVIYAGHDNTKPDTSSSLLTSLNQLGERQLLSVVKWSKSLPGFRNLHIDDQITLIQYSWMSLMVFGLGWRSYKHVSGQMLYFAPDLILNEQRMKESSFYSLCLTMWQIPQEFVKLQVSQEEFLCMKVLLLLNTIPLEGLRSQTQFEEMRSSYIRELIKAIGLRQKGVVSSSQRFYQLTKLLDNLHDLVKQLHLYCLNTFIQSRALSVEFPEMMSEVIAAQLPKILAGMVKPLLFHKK
Method: The method described by Di Lorenzo et al was followed with minor adaptation (Di Lorenzo et al., [1991]). In brief, T47D breast carcinoma cells were seeded in 96-well plates at 50,000 cell/well in RPMI medium supplemented with 10% FBS. After overnight culture, the medium was changed to RPMI phenol red free containing 2% charcoal-stripped FBS. After 24 h, the cells were treated with progesterone (Sigma Aldrich, Gillingham, UK) or the library compounds. Progesterone and the test compounds were dissolved in DMSO (100%) and diluted into treatment medium to give a final DMSO (v/v) concentration of 0.1%. After incubation (48 h) the treatment was finalised by twice washing the plates with PBS. Cells were lysed by two freeze-thaw cycles (− 80 °C). Cellular alkaline phosphatase activity was determined by adding Femto ELISA-AP substrate (200 μL) and optical density measurements taken at 5 and 10 min intervals at a wavelength of 405 nm. Data was interpreted using Graphpad Prism (GraphPad, CA, USA) using the model: dose-response simulation/inhibition, log(agonist/inhibition) vs. response – variable slope (four parameters). For compounds where EC50 > 10,000, an antagonist profile was assumed and the experiment was repeated with the inclusion of progesterone (3 mM) with the library compound. Data shown in the supporting information (Additional file 1: Figure S32).

GR = target: T2, GR (Homo sapiens, UniProt P04150); assay: PatHunter express CHO-K1 GR nuclear translocation assay; type: cell-based; details: CHO-K1 cells; 6 h; at 0.5 μM; dexamethasone positive control
T2 construct: host or cells: CHO-K1 (Chinese hamster ovary) cells
T2 sequence (P04150 1-777): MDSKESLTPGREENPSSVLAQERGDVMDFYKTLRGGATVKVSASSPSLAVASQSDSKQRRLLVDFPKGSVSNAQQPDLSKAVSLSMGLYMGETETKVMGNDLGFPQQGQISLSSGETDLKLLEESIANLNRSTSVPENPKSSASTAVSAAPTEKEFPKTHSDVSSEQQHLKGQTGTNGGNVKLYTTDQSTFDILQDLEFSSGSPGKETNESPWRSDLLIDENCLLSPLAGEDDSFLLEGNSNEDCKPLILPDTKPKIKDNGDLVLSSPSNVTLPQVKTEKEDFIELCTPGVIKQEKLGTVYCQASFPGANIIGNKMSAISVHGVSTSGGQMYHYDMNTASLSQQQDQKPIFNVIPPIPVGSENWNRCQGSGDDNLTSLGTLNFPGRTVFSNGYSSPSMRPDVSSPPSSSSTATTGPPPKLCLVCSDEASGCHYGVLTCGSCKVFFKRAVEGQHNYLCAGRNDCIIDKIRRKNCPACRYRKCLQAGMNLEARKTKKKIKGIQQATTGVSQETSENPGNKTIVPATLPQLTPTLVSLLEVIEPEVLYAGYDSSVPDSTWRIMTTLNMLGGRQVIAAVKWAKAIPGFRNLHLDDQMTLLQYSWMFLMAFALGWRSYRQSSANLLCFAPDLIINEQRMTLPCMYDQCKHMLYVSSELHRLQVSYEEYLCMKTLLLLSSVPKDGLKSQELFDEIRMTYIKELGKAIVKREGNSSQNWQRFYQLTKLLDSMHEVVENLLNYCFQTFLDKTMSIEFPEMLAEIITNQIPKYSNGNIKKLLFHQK
Method: Compound 2 was analysed for GR binding using the PatHunter® express CHO-K1 GR Nuclear Translocation assay (DiscoveRx™, Fremont, CA, USA). Reagents were thawed and equilibrated to room temperature prior to use. Dexamethasone standard (10 mM, 100% DMSO) was diluted and used to prepare 12 standards by 1:4 dilution. Test compound 2 was dissolved in 100% DMSO and diluted in serial 1:3 dilutions to a final concentration of DMSO (v/v) of 0.1%. CHO-K1 (Chinese hamster ovary) cells were seeded in a 96-well plate with CP reagent and incubated for 24 h at 37 °C, 5% CO2. Cells were then incubated with the Dexamethasone standard and compound 2 for 6 h at 37 °C, 5% CO2. Following incubation, signal was detected using the PathHunter® detection reagent provided in the kit and incubated in the dark for 1 h. The plate was read using a luminescence plate reader (Additional file 1: Figure S33).

EC50 ([1]; agonist response, 48 h incubation, average of at least n = 3 ± SD): 4.7 ± 0.07 nM
fold more potent than structural isomer 4 ([1]; compound 2 versus 4): ~1000 fold
SMILES: CC1(C)OC(=S)Nc2ccc(-c3cccnc3F)cc21 [Compound 2, 6-(2-fluoropyridin-3-yl)-4,4-dimethyl-1H-benzo[d][1,3]oxazine-2(4H)-thione]
GR nuclear translocation response (GR): poor binder; also recorded: failed to elicit a response
